Earlier results as cited in patent publication US8748582B2, “Affinity ligands and methods for protein purification” (Monash University, priority 2009, dated 2014).

Biological target: IgG
Conditions: read-out: dissociation constant for IgG

## Protein A: bacterial Fc receptor used as immobilised affinity ligand for antibodies
  Kd: 100 nM
